From patent US9452159B2, “6-aminopyridine-3-ol derivatives or pharmaceutically acceptable salts thereof, and pharmaceutical composition containing same as active ingredients for preventing or treating diseases caused by angiogenesis” (Research Cooperation Foundation of Yeungnam University, priority 2011, dated 2016)

Experiments:
Male Balb/c mice = experiment: Toxicity test, single oral administration; assay type: in vivo; conditions: once, 0.5 g/kg, 1 g/kg and 2 g/kg in 0.5% methylcellose, 7 days
Experimental: Male Balb/c mice were orally administered once with Compound 6a suspended in a 0.5% methylcellose solution, in a dosage of each of 0.5 g/kg, 1 g/kg, and 2 g/kg, and then, for 7 days, the survival rate and body weight of the mice were measured.
After the administration, the death, clinical symptoms, and body weight change of the mice were analyzed, and a hematological examination and a blood biochemical examination were performed. Then, the autopsy of the mice was performed, and abnormality of abdominal cavity organs and thoracic cavity organs was examined.

HUVEC cells = experiment: VEGF-derived ROS scavenging ability (DCF-DA fluorescence); assay type: cell-based; conditions: HUVEC pretreated 3 hours, then VEGF 15 minutes, compared to VEGF, FIG. 5
Experimental: (§1) DCF-DA (2′,7′-dichlorofluorescein diacetate) was used to measure a VEGF-derived ROS scavenging ability in HUVEC cells. When ROS exists in cells, DCF-DA is oxidized into fluorescent DCF, thereby emitting green fluorescent light. 1×10^5 concentration of HUVEC was spread onto a 0.2% gelatin coated 8-well plate, and then incubated for 24 hours. The cells were pretreated with Compounds 6a or 6i for 3 hours and then, treated with VEGF for 15 minutes, and then, washed three times with PBS (pH 7.4), and then, 10 μM of DCF-DA was added to EBM-2 medium, which was then placed in dark condition for 30 minutes. Then, the cells were washed three times with PBS, and a degree of intracellular fluorescence was measured by using a fluorescent microscope.

[1] = test system: ARPE-19 (adult retinal pigment epithelium-19) cell line; experiment: Macular degeneration risk factor-derived ROS scavenging ability; assay type: cell-based; conditions: compared to a control
Experimental: as §1
The same experiment as used in Experimental Example 3 was performed, except that ARPE-19 (adult retinal pigment epithelium-19) cell line was treated with 4-hydroxynonenal (4-HNE) or angiotensin II (Ang II), which are macular degeneration risk factors, to identify ROS scavenging ability of Compound 6a.

[2] = test system: chorioallantoic membrane (CAM); experiment: Chorioallantoic membrane (CAM) assay, VEGF-derived angiogenesis; assay type: in vivo, chick
Experimental: To examine angiogenesis inhibiting effects in vivo, CAM assay was performed (Nguyen Metal., Microvascular Res., 47, pp 31-40, 1994). Hen's fertile eggs were incubated at a temperature of 37° C. and in relative humidity 55%, and on the 10th day after the incubation, an air sac site was punched by using a hypodermic needle (Greencross Medical Science Corp, Korea) to form a first hole, and then, a planar site of the fertile egg where a window was to be formed was punched to form a second hole. Air was removed through the first pore of the air sac site to allow the chorioallantoic membrane (CAM) to be separated from the shell of the fertile egg, and this site was cut by using a grinding wheel (Multipro 395JA, Dremel, Mexico) to form a window. […] Through the window, the filter disc was placed on blood vessels, which were then treated with the compounds each dissolved in dimethylsulfoxide (DMSO) and diluted with phosphate buffer solution (PBS) at various concentrations. 3 days after the treatment with the compounds, the CAM site with the filter disc placed thereon was separated, and then washed with a phosphate buffer solution, and an image thereof was obtained by using a stereomicroscope (Stemi SV6 stereomicroscope, Carl Zeiss, Germany) and image-Pro Plus software (Media Cybernetics; Silver Spring, Md., U.S.A.) to count the number of blood vessel branches, and the obtained results were assayed.

A549 lung cancer cells = experiment: Oncogenesis-derived angiogenesis and tumor growth on CAM inoculated with A549 lung cancer cells; assay type: in vivo, chick; conditions: A549 cells 1.5×10^6 cell/CAM, various concentrations, five days after inoculation; FIG. 4
Experimental: Hen's fertile eggs were incubated, and on the 9th day, a window was formed in the same manner as in Experimental Example 1, and instead of a disc, A549 lung cancer cells were mixed with matrigel at a ratio of 1:1, and then the cells were treated with Compounds 6a and 6i and inoculated at a concentration of 1.5×10^6 cell/CAM. Five days after the inoculation, the CAM site where tumors developed was separated and washed with a phosphate buffer solution, and then, an image thereof was obtained by using a stereomicroscope (Stemi SV6 stereomicroscope, Carl Zeiss, Germany) and Image-Pro Plus software (Media Cybernetics; Silver Spring, Md., U.S.A.) to count the number of blood vessel branches, and the results were assayed.

Cc1nc(N)c(C)c(C)c1O [Compound 6a, 6-amino-2,4,5-trimethylpyridin-3-ol]
body weight change, blood examination, blood biochemical examination, and autopsy results (Male Balb/c mice): no toxicity change | clinical symptoms (Male Balb/c mice): did not have distinguishing clinical symptoms | death (Male Balb/c mice): did not die | degree of intracellular fluorescence (VEGF-derived ROS) (HUVEC cells): substantial decrease | degree of intracellular fluorescence (ROS), 4-hydroxynonenal (4-HNE) ([1]; ARPE-19 treated with 4-HNE, FIG. 7): substantially decreased | degree of intracellular fluorescence (ROS), angiotensin II (Ang II) ([1]; ARPE-19 treated with Ang II, FIG. 6): substantially decreased | inhibition in vivo at 0.1 µM ([2]; Gallus gallus, 72 h, VEGF (50 ng/CAM) + 0.15 ng/CAM, 0.1 μM, 3 days after treatment, read-out: Inhibition ratio): 64 ± 8.8% | inhibition in vivo at 1 µM ([2]; Gallus gallus, 72 h, VEGF (50 ng/CAM) + 1.5 ng/CAM, 1 μM, 3 days after treatment, read-out: Inhibition ratio): 76.3 ± 5.2% | IC50 ([2]; Gallus gallus, CAM treated with various concentrations, FIG. 3, read-out: IC50 with respect to angiogenesis inhibition): 2 nM | Number of blood vessel branches/main blood vessel ([2]; VEGF (50 ng/CAM) + 0.15 ng/CAM, 0.1 μM, 3 days after treatment): 28 ± 3.3^8 | Number of blood vessel branches/main blood vessel ([2]; VEGF (50 ng/CAM) + 1.5 ng/CAM, 1 μM, 3 days after treatment): 23.3 ± 2.0^8 | angiogenesis inhibiting effects ([2]; VEGF-treated CAM, summary of Table 1, 6a compared with SU4312, batimastat and α-tocopherol): excellent angiogenesis inhibiting effects even at low concentration | oncogenesis-derived angiogenesis (A549 lung cancer cells): inhibited | tumor growth (A549 lung cancer cells): inhibited
